From ChEMBL document CHEMBL2440027, “Further SAR studies on bicyclic basic merbarone analogues as potent antiproliferative agents” (Bioorg Med Chem, 2013)

Tests used:
[1] = tested on: UACC-62; experiment: Growth inhibition of human UACC62 cells assessed as cell growth at 10 uM after 48 hrs by sulforhodamine B assay relative to control; type: functional; conditions: UACC-62, 48 h, read-out: Activity
[2] = tested on: UACC-257; experiment: Growth inhibition of human UACC257 cells assessed as cell growth at 10 uM after 48 hrs by sulforhodamine B assay relative to control; type: functional; conditions: UACC-257, 48 h, read-out: Activity
[3] = tested on: SK-MEL-28; experiment: Growth inhibition of human SK-MEL-28 cells assessed as cell growth at 10 uM after 48 hrs by sulforhodamine B assay relative to control; type: functional; conditions: SK-MEL-28, 48 h, read-out: Activity
[4] = tested on: Malme-3M; experiment: Growth inhibition of human MALME-3M cells assessed as cell growth at 10 uM after 48 hrs by sulforhodamine B assay relative to control; type: functional; conditions: read-out: Activity
[5] = tested on: COLO 205; experiment: Growth inhibition of human COLO205 cells assessed as cell growth at 10 uM after 48 hrs by sulforhodamine B assay relative to control; type: functional; conditions: COLO 205, 48 h, read-out: Activity
[6] = tested on: NCI-H460; experiment: Growth inhibition of human NCI-H460 cells assessed as cell growth at 10 uM after 48 hrs by sulforhodamine B assay relative to control; type: functional; conditions: NCI-H460, 48 h, read-out: Activity
[7] = tested on: NCI-H322M; experiment: Growth inhibition of human NCI-H322M cells assessed as cell growth at 10 uM after 48 hrs by sulforhodamine B assay relative to control; type: functional; conditions: read-out: Activity
[8] = Growth inhibition of human EKVX cells assessed as cell growth at 10 uM after 48 hrs by sulforhodamine B assay relative to control; type: functional; conditions: read-out: Activity
[9] = tested on: RPMI-8226; experiment: Growth inhibition of human RPMI8226 cells assessed as cell growth at 10 uM after 48 hrs by sulforhodamine B assay relative to control; type: functional; conditions: RPMI-8226, 48 h, read-out: Activity
[10] = tested on: MT4; experiment: Cytotoxicity against human MT4 cells; type: functional, cell-based
[11] = tested on: MCF7; experiment: Growth inhibition of human MCF7 cells after 48 hrs by sulforhodamine B assay; type: functional; conditions: MCF7, 48 h; for CC50: read-out: LC50 (the source's name)
[12] = tested on: UO-31; experiment: Growth inhibition of human UO31 cells after 48 hrs by sulforhodamine B assay; type: functional; conditions: UO-31, 48 h
[13] = tested on: A498; experiment: Growth inhibition of human A498 cells after 48 hrs by sulforhodamine B assay; type: functional; conditions: A498, 48 h; for CC50: read-out: LC50 (the source's name)
[14] = tested on: IGROV-1; experiment: Growth inhibition of human IGROV1 cells after 48 hrs by sulforhodamine B assay; type: functional; conditions: IGROV-1, 48 h; for CC50: read-out: LC50 (the source's name)
[15] = tested on: UACC-62; experiment: Growth inhibition of human UACC62 cells after 48 hrs by sulforhodamine B assay; type: functional; conditions: UACC-62, 48 h; for CC50: read-out: LC50 (the source's name)
[16] = tested on: SK-MEL-28; experiment: Growth inhibition of human SK-MEL-28 cells after 48 hrs by sulforhodamine B assay; type: functional; conditions: SK-MEL-28, 48 h; for CC50: read-out: LC50 (the source's name)
[17] = tested on: MDA-MB-435; experiment: Growth inhibition of human MDA-MB-435 cells after 48 hrs by sulforhodamine B assay; type: functional; conditions: MDA-MB-435, 48 h; for CC50: read-out: LC50 (the source's name)
[18] = tested on: M14; experiment: Growth inhibition of human M14 cells after 48 hrs by sulforhodamine B assay; type: functional; conditions: M14, 48 h; for CC50: read-out: LC50 (the source's name)
[19] = tested on: Malme-3M; experiment: Growth inhibition of human MALME-3M cells after 48 hrs by sulforhodamine B assay; type: functional; conditions: for CC50: read-out: LC50 (the source's name)
[20] = tested on: LOX IMVI; experiment: Growth inhibition of human LOXIMVI cells after 48 hrs by sulforhodamine B assay; type: functional
[21] = tested on: U-251; experiment: Growth inhibition of human U251 cells after 48 hrs by sulforhodamine B assay; type: functional; conditions: U-251, 48 h; for CC50: read-out: LC50 (the source's name)
[22] = tested on: SF-295; experiment: Growth inhibition of human SF295 cells after 48 hrs by sulforhodamine B assay; type: functional; conditions: SF-295, 48 h; for CC50: read-out: LC50 (the source's name)
[23] = tested on: SF-268; experiment: Growth inhibition of human SF268 cells after 48 hrs by sulforhodamine B assay; type: functional; conditions: SF-268, 48 h
[24] = tested on: KM12; experiment: Growth inhibition of human KM12 cells after 48 hrs by sulforhodamine B assay; type: functional; conditions: KM12, 48 h
[25] = Growth inhibition of human HCC2998 cells after 48 hrs by sulforhodamine B assay; type: functional; conditions: HCC 2998, 48 h
[26] = tested on: HCT-116; experiment: Growth inhibition of human HCT116 cells after 48 hrs by sulforhodamine B assay; type: functional; conditions: HCT-116, 48 h
[27] = tested on: COLO 205; experiment: Growth inhibition of human COLO205 cells after 48 hrs by sulforhodamine B assay; type: functional; conditions: COLO 205, 48 h; for CC50: read-out: LC50 (the source's name)
[28] = tested on: NCI-H226; experiment: Growth inhibition of human NCI-H226 cells after 48 hrs by sulforhodamine B assay; type: functional; conditions: NCI-H226, 48 h
[29] = tested on: HOP-92; experiment: Growth inhibition of human HOP92 cells after 48 hrs by sulforhodamine B assay; type: functional; conditions: HOP-92, 48 h
[30] = tested on: A549; experiment: Growth inhibition of human A549/ATCC cells after 48 hrs by sulforhodamine B assay; type: functional; conditions: A549, 48 h
[31] = tested on: HL-60(TB); experiment: Growth inhibition of human HL-60(TB) cells after 48 hrs by sulforhodamine B assay; type: functional; conditions: HL-60, 48 h
[32] = tested on: CCRF-CEM; experiment: Growth inhibition of human CCRF-CEM cells after 48 hrs by sulforhodamine B assay; type: functional
[33] = tested on: DU-145; experiment: Growth inhibition of human DU145 cells assessed as cell growth at 10 uM after 48 hrs by sulforhodamine B assay relative to control; type: functional; conditions: DU-145, 48 h, read-out: Activity
[34] = tested on: PC-3; experiment: Growth inhibition of human PC3 cells assessed as cell growth at 10 uM after 48 hrs by sulforhodamine B assay relative to control; type: functional; conditions: PC-3, 48 h, read-out: Activity

CCCCN(CCCC)CCCNc1nc2c(c(=N)n1-c1ccccc1)c(=S)n(-c1ccccc1)c(=S)n2-c1ccccc1
growth at 10 µM [1]: -99.4% | growth at 10 µM [2]: -73.1% | growth at 10 µM [3]: -100% | growth at 10 µM [4]: -91.5% | growth at 10 µM [5]: -74.1% | growth at 10 µM [6]: -95.7% | growth at 10 µM [7]: -57.8% | growth at 10 µM [8]: -74.2% | growth at 10 µM [9]: -53.4% | IC50 [10]: 1.6 µM | GI50 [11]: 300 nM | TGI [11]: 1.3 µM | CC50 [11]: 3.6 µM | GI50 [12]: 200 nM | LC50 [12]: 1.1 µM | TGI [12]: 500 nM | GI50 [13]: 1100 nM | TGI [13]: 2.4 µM | CC50 [13]: 5.2 µM | GI50 [14]: 1.9 µM | TGI [14]: 3.8 µM | CC50 [14]: 7.5 µM | GI50 [15]: 300 nM | TGI [15]: 1200 nM | CC50 [15]: 3.5 µM | GI50 [16]: 200 nM | TGI [16]: 300 nM | CC50 [16]: 0.7 µM | GI50 [17]: 200 nM | TGI [17]: 500 nM | CC50 [17]: 1.5 µM | GI50 [18]: 200 nM | TGI [18]: 400 nM | CC50 [18]: 0.8 µM | GI50 [19]: 200 nM | TGI [19]: 500 nM | CC50 [19]: 1.5 µM | GI50 [20]: 200 nM | LC50 (concentration killing 50% of cells) [20]: 600 nM | TGI [20]: 300 nM | GI50 [21]: 300 nM | TGI [21]: 1200 nM | CC50 [21]: 3.5 µM | GI50 [22]: 1200 nM | TGI [22]: 2.7 µM | CC50 [22]: 5.8 µM | GI50 [23]: 1000 nM | LC50 [23]: 4.7 µM | TGI [23]: 2.2 µM | GI50 [24]: 400 nM | LC50 [24]: 3.8 µM | TGI [24]: 1.5 µM | GI50 [25]: 400 nM | LC50 [25]: 4.7 µM | TGI [25]: 1.8 µM | GI50 [26]: 300 nM | TGI [26]: 1.1 µM | CC50 ([26]; read-out: LC50 (the source's name)): 3.4 µM | GI50 [27]: 200 nM | TGI [27]: 1400 nM | CC50 [27]: 6 µM | GI50 [28]: 1.4 µM | LC50 [28]: 5.5 µM | TGI [28]: 2.8 µM | GI50 [29]: 200 nM | LC50 (concentration killing 50% of cells) [29]: 3.5 µM | TGI [29]: 0.8 µM | GI50 [30]: 700 nM | LC50 [30]: 8.3 µM | TGI [30]: 2.4 µM | GI50 [31]: 200 nM | GI50 [32]: 100 nM | LC50 [32]: 0.6 µM | TGI [32]: 300 nM | growth at 10 µM [33]: -100% | growth at 10 µM [34]: -70.8%

CN(C)CCNc1nc2c(c(=N)n1-c1ccccc1)c(=S)n(-c1ccccc1)c(=S)n2-c1ccccc1
growth at 10 µM [1]: -90.3% | growth at 10 µM [2]: -74.6% | growth at 10 µM [3]: -100% | growth at 10 µM [4]: -89.5% | growth at 10 µM [5]: 6.65% | growth at 10 µM [6]: 3.8% | growth at 10 µM [7]: 58.5% | growth at 10 µM [8]: 39.8% | growth at 10 µM [9]: -4.62% | IC50 [10]: 8.4 µM | GI50 [11]: 2200 nM | TGI [11]: 10.9 µM | CC50 [11]: 48.8 µM | GI50 [12]: 1600 nM | LC50 [12]: 9.6 µM | TGI [12]: 3900 nM | GI50 [13]: 2400 nM | TGI [13]: 6.8 µM | CC50 [13]: 28.1 µM | GI50 [14]: 8.1 µM | TGI [14]: 23 µM | CC50 [14]: 57.5 µM | GI50 [15]: 1800 nM | TGI [15]: 3500 nM | CC50 [15]: 6.6 µM | GI50 [16]: 600 nM | TGI [16]: 2100 nM | CC50 [16]: 5.8 µM | GI50 [17]: 1900 nM | TGI [17]: 4700 nM | CC50 [17]: 22.1 µM | GI50 [18]: 1800 nM | TGI [18]: 4300 nM | CC50 [18]: 89.1 µM | GI50 [19]: 2600 nM | TGI [19]: 5000 nM | CC50 [19]: 9.5 µM | GI50 [20]: 1400 nM | LC50 (concentration killing 50% of cells) [20]: 5300 nM | TGI [20]: 2700 nM | GI50 [21]: 1500 nM | TGI [21]: 3400 nM | CC50 [21]: 7.8 µM | GI50 [22]: 2900 nM | TGI [22]: 8.3 µM | CC50 [22]: 51.1 µM | GI50 [23]: 4100 nM | LC50 [23]: 45.6 µM | TGI [23]: 15.3 µM | GI50 [24]: 4300 nM | LC50 [24]: 49.9 µM | TGI [24]: 14.6 µM | GI50 [25]: 2300 nM | LC50 [25]: 43 µM | TGI [25]: 6.8 µM | GI50 [26]: 2700 nM | TGI [26]: 16 µM | GI50 [27]: 1600 nM | TGI [27]: 3800 nM | CC50 [27]: 9.1 µM | GI50 [28]: 11.6 µM | LC50 [28]: 59.5 µM | TGI [28]: 26.3 µM | GI50 [29]: 1800 nM | LC50 (concentration killing 50% of cells) [29]: 60.1 µM | TGI [29]: 10.3 µM | GI50 [30]: 4100 nM | LC50 [30]: 70.4 µM | TGI [30]: 18.6 µM | GI50 [31]: 1500 nM | LC50 [31]: 7.1 µM | TGI [31]: 3.3 µM | GI50 [32]: 1400 nM | LC50 [32]: 9.2 µM | TGI [32]: 3600 nM | growth at 10 µM [33]: 45% | growth at 10 µM [34]: 31%
